What all share (assay): NCI anticancer screen, dose series, 48 h
Assay [1] relates to 786-0.
For assay [2], the system named is CCRF-CEM.
The subject of assay [3] is DLD-1.
In assay [4] the test system is DMS-114.
The test system of assay [5] is DMS-273.
The test system of assay [6] is DU-145.
Assay [7] concerns IGROV-1.
The test system of assay [8] is KM-20L2.
In assay [9] the test system is M19-MEL.
Assay [10] has as its system MDA-MB-435.
In assay [11] the test system is NCI/ADR-RES.
The test system of assay [12] is OVCAR-4.
Assay [13] deals with PC-3.
In assay [14] the test system is SN12C.
Assay [15] has as its system SNB-78.
Assay [16] concerns SW-620.
Assay [17] has as its system T47D.
Assay [18] deals with TK-10.
The subject of assay [19] is UACC-257.
For assay [20], the system named is UO-31.

Each structure is given as a SMILES string.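 How tested: cells in 96-well plates exposed to compound for 48 hours at five concentrations. The concentration for 50% growth inhibition is given as GI50.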 Activity calls are given as the source filed them. Rule as the data show it: active = GI50 up to about 1.1 µM and inactive = higher.

As for `O=C(O)C(C(=O)O)P(=S)(S)c1ccccc1` (centres undefined), the GI50 in [1], in [2], in assay [3], in assay [4], in [5] and in assay [6] was > 100 µM (inactive) each time. In addition, the GI50 in assay [7], in [8], in [9], in [10], in assay [11] and in [12] was > 100 µM (inactive) each time. The GI50 in assay [13], in assay [14], in assay [15], in [16], in assay [17] and in assay [18] was > 100 µM (inactive) throughout. The GI50 in assay [19] and in [20] was > 100 µM (inactive) each time.

Consider `Cc1c2cc[n+](C)cc2c(C)c2c1[nH]c1ccc(O)cc12` [ELLIPTINIUM ACETATE], for which the GI50 is 4.82 µM (inactive) in [2]; 57.7 µM (inactive) in assay [3]; 5.97 µM (inactive) in [4]; 11.7 µM (inactive) in assay [5]; 5.46 µM (inactive) in assay [6]; 16.6 µM (inactive) in [7]. Moreover, the GI50 was > 100 µM (inactive) in assay [8]; 4.7 µM (inactive) in assay [9]; 48.9 µM (inactive) in [10]; 61.7 µM (inactive) in assay [11]; 38.3 µM (inactive) in assay [12]; 28.4 µM (inactive) in [13]. Besides, the GI50 was 0.532 µM (active) in [14]; 61.9 µM (inactive) in assay [15]; 14 µM (inactive) in assay [16]; 0.251 µM (active) in [17]; 68.2 µM (inactive) in assay [18]; 64 µM (inactive) in assay [19]. Moreover, in [20], the GI50 was 17.7 µM (inactive).
